Read-outs that look alike come from different tables or passages of the source.
Tests used:
[1] = target: T1, human EDG-1 (S1P-1) (Homo sapiens, UniProt P21453); assay: EDG-1 (S1P1) GTP [γ-35S] binding SPA assay; type: biochemical; conditions: for EC50: GTP [γ-35S] binding, CHO cell membranes
T1 construct: c-myc (N); expressed in transfected cells; host or cells: CHO cell clones (membrane preparation)
Method: (§1) A. In Vitro: A Scintillation Proximity Assay (SPA) for Measuring GTP [γ-^35S] Binding to Membranes Prepared from CHO Cells Expressing Human EDG/S1P Receptors
(§2) EDG-1 (S1P1) GTP [γ-^35S] binding assay: Membrane protein suspensions are prepared from CHO cell clones stably expressing a human EDG-1 N-terminal c-myc tag. Solutions of test compounds ranging from 10 mM to 0.01 nM are prepared in DMSO/50 mM HCl and then diluted into assay buffer (20 mM HEPES, pH7.4, 100 mM NaCl, 10 mM MgCl2, 0.1% fat free BSA). Assay buffer containing 10 mM GDP is mixed with wheat germ agglutinin-coated SPA-beads (1 mg/well) followed by the addition of human EDG-1 membrane protein suspension (10 μg/well) and test compound. The bead/membrane/compound assay components are then mixed for 10-15 minutes on a shaker at room temperature. GTP [γ-^35S] (200 pM) and bead/membrane/compound assay mixture are added to individual wells of a 96 well Optiplate™ (final volume 225 μl/well), sealed and incubated at room temperature for 110 to 120 minutes under constant shaking. After centrifugation (2000 rpm, 10 minutes) luminescence is measured with a TopCount™ instrument.
EC50 values are obtained by fitting the GTP [γ-^35S] binding curves (raw data) with the dose response curve-fitting tool of ORIGIN V. 6.1. Basal binding (no compound) and the highest stimulation of GTP [γ-^35S] binding achieved by an agonist are used as the fitting range. Seven different concentrations are used to generate a concentration response curve (using two or three data points per concentration).
Concentrations of EDG receptor expressing membranes range between 13-19 μg per well.

[2] = test system: peripheral blood lymphocytes; assay: Measurement of circulating lymphocytes (blood lymphocyte depletion); type: in vivo, Mice (C57bl/6 male); conditions: Mus musculus, mice, oral gavage, read-out: ED50 (effective dose for 50% blood lymphocyte depletion)
Method: C. In Vivo: Screening Assays for Measurement of Blood Lymphocyte Depletion and Assessment of Heart Effect
Measurement of circulating lymphocytes: Compounds are dissolved in DMSO and diluted to obtain a final concentration of 4% DMSO (v/v, final concentration) and then further diluted in a constant volume of Tween80 25%/H2O, v/v. Tween80 25%/H2O (200 μl), 4% DMSO, and FTY720 (10 μg) are included as negative and positive controls, respectively. Mice (C57bl/6 male, 6-10 week-old) are administered 250-300 μL of compound solution orally by gavages under short isoflurane anesthesia.
[…] Whole blood samples are subjected to hematology analysis. Peripheral lymphocyte counts are determined using an automated analyzer. Subpopulations of peripheral blood lymphocytes are stained by fluorochrome-conjugated specific antibodies and analyzed using a fluorescent activating cell sorter (Facscalibur). Two mice are used to assess the lymphocyte depletion activity of each compound screened. The result is an ED50, which is defined as the effective dose required displaying 50% of blood lymphocyte depletion.

[3] = target: S1P-3 (EDG-3) (Homo sapiens, UniProt Q99500); assay: EDG-3 GTP [γ-35S] binding SPA assay; type: biochemical
Method: as §1, §2
(§3) EC50 values are obtained by fitting the GTP [γ-^35S] binding curves (raw data) with the dose response curve-fitting tool of ORIGIN V. 6.1. […]

[4] = target: T2, S1P-4 (EDG-6) (Homo sapiens, UniProt O95977); assay: EDG-6 GTP [γ-35S] binding SPA assay; type: biochemical
T2 sequence (O95977 1-384): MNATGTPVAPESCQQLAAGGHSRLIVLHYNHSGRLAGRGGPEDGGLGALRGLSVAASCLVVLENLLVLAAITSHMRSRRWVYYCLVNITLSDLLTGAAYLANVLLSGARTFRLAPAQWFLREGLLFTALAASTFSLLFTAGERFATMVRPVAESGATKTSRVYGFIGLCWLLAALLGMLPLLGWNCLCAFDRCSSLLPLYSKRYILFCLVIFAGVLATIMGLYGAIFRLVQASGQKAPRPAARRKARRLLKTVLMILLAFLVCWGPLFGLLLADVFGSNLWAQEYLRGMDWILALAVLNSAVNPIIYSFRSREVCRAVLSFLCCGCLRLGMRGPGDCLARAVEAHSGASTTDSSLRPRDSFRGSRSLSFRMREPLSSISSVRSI
Method: as §1, §2, §3

[5] = target: T3, S1P-2 (EDG-5) (Homo sapiens, UniProt O95136); assay: EDG-5 GTP [γ-35S] binding SPA assay; type: biochemical
T3 construct: expressed in transfected cells; host or cells: CHO cells (membrane preparation)
Method: as §1, §2, §3

[6] = target: T4, S1P-5 (EDG-8) (Homo sapiens, UniProt Q9H228); assay: EDG-8 GTP [γ-35S] binding SPA assay; type: biochemical
T4 construct: expressed in transfected cells; host or cells: RE7777 cells as printed (membrane preparation)
Method: as §1, §2, §3

T1 sequence (P21453 whole entry): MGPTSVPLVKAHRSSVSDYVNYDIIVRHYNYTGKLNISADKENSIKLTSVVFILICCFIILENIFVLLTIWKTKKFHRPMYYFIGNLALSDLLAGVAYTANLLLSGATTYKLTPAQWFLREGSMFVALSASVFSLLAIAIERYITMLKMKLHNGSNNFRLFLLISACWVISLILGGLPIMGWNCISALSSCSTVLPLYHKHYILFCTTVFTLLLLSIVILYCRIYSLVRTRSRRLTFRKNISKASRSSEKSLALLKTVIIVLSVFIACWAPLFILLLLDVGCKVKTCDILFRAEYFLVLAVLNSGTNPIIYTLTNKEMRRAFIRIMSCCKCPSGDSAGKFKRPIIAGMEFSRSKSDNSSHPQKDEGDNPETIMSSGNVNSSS
Chain of S1P-3 (EDG-3) (Q99500 whole entry): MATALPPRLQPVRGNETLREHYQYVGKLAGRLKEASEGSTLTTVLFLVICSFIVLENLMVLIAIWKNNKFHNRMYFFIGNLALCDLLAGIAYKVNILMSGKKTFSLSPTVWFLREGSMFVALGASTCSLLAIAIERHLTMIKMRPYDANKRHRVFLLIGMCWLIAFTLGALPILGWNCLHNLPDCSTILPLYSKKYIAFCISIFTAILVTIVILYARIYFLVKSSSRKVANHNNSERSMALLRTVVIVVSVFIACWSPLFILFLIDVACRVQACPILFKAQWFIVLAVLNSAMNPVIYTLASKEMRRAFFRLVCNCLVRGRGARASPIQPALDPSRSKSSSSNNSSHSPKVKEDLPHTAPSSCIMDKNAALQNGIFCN
T4 sequence (Q9H228 whole entry): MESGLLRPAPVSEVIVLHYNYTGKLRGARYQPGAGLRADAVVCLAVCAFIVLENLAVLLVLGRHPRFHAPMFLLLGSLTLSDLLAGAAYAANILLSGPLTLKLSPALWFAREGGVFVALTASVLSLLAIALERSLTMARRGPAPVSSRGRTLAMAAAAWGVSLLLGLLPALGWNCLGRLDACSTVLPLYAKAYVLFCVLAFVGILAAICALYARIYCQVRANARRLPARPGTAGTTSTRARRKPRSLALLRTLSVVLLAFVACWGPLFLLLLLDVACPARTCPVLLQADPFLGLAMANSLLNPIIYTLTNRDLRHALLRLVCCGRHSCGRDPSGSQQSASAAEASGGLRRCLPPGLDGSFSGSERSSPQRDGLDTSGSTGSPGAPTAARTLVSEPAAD
T3 sequence (O95136 whole entry): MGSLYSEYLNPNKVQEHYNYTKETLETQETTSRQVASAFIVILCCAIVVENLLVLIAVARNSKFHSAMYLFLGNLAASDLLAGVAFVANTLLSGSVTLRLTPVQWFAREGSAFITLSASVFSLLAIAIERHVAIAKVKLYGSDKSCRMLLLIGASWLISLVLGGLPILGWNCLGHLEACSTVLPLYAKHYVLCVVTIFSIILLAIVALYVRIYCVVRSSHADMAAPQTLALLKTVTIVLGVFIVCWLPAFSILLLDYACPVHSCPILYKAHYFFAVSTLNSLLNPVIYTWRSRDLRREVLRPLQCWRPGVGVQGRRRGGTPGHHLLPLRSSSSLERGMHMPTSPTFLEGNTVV

Row | EC50 [1] [nM] | selectivity for S1P-1 compared to one or more of the other receptors ([1]; versus S1P-3, S1P-5, S1P-6 and S1P-8 as printed) | EC50 [3] [nM] | EC50 [4] [nM] | EC50 [5] [nM] | EC50 [6] [nM] | Compound | ED50 ([2]; time point not stated) [mg/kg] | ED50 ([2]; at 6 hours) [mg/kg] | ED50 ([2]; at 48 hours) [mg/kg]
1 | 0.22 | at least 1000 fold | – | – | – | – | Cc1cc(OCc2ccc(C3CCN(CCC(=O)O)CC3)cc2)ccc1C1CCCCC1 [Example 1, 3-{4-[4-(4-Cyclohexyl-3-methyl-phenoxymethyl)-phenyl]-piperidin-1-yl}-propionic acid] | 0.1 | – | –
2 | 2 | – | 2000 | > 10000 | > 10000 | 370 | Cc1cc(OCc2ccc(C3CCN(CCC(=O)O)CC3)cc2)ccc1-c1ccccc1 [Example 8, 3-{4-[4-(2-Methyl-biphenyl-4-yloxymethyl)-phenyl]-piperidin-1-yl}-propionic acid] | – | 0.2 | 0.8

From patent US7572811B2, “Immunosuppressant compounds and compositions” (IRM LLC, priority 2004, dated 2009)
